Drawing on ChEMBL document CHEMBL5465560, “Selectivity Literature for EUbOPEN Chemogenomic Library” (2024), this text covers % of control and % of inhibition for 7 compounds.

Structures are written as SMILES.

The target of assay [1] is Tyrosine-protein kinase Fes/Fps (Homo sapiens) (UniProt P07332). Description: Selectivity interaction (Kinase panel (Z-LYTE Assay)) EUB0001632a FES. The conditions noted are these: at 10 µM.
For assay [2], the target named is T1, Uncharacterized serine/threonine-protein kinase SBK3 (Homo sapiens) (UniProt P0C264).
T1 sequence (whole entry): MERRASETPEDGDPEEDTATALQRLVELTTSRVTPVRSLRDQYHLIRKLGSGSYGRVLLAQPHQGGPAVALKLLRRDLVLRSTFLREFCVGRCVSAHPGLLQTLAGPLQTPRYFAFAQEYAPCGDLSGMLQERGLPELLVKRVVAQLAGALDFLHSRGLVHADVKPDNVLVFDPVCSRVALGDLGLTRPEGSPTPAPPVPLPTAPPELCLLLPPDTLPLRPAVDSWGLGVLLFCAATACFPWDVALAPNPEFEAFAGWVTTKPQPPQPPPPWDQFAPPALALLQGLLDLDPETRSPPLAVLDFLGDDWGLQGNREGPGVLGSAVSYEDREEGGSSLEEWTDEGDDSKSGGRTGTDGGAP
As to conditions: at 10 µM.

Assay [3] addresses Vascular endothelial growth factor receptor 2 (Homo sapiens, UniProt P35968). As to conditions: at 10 µM.
For assay [4], the target named is T2, STE20-related kinase adapter protein alpha (Homo sapiens) (UniProt Q7RTN6).
T2 sequence (whole entry): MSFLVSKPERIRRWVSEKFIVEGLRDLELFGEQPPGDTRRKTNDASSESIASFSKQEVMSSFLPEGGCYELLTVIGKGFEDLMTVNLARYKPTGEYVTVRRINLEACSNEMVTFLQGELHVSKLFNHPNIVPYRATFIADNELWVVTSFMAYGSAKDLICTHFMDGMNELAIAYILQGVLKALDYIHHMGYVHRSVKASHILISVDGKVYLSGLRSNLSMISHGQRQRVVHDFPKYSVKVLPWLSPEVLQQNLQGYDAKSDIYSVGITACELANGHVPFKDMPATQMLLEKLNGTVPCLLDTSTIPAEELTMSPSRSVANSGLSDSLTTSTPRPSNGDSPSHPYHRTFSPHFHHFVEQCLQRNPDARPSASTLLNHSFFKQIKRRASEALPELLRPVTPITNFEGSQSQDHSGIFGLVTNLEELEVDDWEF
Nature of the assay: Selectivity interaction (ActivX KiNativ screen (kinase selectivity in THP-1 cell lysates)) EUB0000639a STRADA. It is filed as subcellular. The conditions noted are these: lysate, at 5 µM.

In assay [5] the target is Serine/threonine-protein kinase N2 (Homo sapiens, UniProt Q16513). Description: Selectivity interaction (KinomeScan (DiscoverX)) EUB0000045b PKN2.
The target of assay [6] is T3, Serine/threonine-protein kinase Nek1 (Homo sapiens) (UniProt Q96PY6).
T3 sequence (whole entry): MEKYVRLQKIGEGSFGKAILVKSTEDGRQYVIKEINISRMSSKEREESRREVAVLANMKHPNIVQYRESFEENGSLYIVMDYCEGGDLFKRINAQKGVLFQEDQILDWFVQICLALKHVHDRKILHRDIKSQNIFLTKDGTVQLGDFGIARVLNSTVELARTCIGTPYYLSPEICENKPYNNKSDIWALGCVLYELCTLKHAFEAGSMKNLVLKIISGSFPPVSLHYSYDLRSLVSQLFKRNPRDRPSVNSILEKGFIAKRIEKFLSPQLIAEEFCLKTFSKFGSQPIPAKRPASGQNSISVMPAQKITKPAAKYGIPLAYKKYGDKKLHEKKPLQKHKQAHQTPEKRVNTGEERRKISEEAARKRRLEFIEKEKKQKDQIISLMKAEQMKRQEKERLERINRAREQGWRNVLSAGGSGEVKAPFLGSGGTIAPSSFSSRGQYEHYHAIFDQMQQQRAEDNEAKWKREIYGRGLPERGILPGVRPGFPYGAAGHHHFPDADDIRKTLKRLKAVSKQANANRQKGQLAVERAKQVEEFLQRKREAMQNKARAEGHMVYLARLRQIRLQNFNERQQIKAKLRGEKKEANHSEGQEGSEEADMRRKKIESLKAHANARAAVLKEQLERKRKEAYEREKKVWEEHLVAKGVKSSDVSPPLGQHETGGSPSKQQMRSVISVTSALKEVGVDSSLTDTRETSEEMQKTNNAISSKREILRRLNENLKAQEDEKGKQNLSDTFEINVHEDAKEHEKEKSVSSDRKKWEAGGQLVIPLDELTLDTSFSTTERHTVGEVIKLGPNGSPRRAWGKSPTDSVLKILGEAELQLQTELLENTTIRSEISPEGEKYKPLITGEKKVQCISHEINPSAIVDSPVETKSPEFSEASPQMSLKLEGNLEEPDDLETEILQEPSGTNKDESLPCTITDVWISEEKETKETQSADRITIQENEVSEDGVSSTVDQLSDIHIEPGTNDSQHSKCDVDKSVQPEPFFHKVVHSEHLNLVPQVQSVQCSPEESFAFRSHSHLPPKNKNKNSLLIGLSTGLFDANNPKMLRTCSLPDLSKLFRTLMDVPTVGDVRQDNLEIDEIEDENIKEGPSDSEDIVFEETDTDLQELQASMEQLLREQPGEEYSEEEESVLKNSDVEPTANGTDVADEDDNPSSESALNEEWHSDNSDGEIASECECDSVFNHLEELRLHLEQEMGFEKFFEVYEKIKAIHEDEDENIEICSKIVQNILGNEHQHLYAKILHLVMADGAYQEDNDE
Nature of the assay: Selectivity interaction (KinomeScan (DiscoverX)) EUB0000045b NEK1.

Assay [7] has as its target MAP kinase-interacting serine/threonine-protein kinase 1 (Homo sapiens) (UniProt Q9BUB5). Description: Selectivity interaction (Kinase panel (literature)) EUB0001199aCl MKNK1. The conditions noted are these: at 1 µM.
The target of assay [8] is High affinity nerve growth factor receptor (Homo sapiens, UniProt P04629). Nature of the assay: Selectivity interaction (KinomeScan (DiscoverX)) EUB0000092b NTRK1. The conditions noted are these: at 10 µM.
Assay [9] has as its target Casein kinase I isoform alpha (Homo sapiens, UniProt P48729). Description: Selectivity interaction (KinomeScan (DiscoverX)) EUB0001079a CSNK1A1. As to conditions: at 1 µM.
The target of assay [10] is Ephrin type-A receptor 7 (Homo sapiens) (UniProt Q15375). Nature of the assay: Selectivity interaction (KinomeScan (DiscoverX)) EUB0001079a EPHA7. As to conditions: at 1 µM.
Chain of Ephrin type-A receptor 7 (Homo sapiens) (Q15375 28-998 limits assumed): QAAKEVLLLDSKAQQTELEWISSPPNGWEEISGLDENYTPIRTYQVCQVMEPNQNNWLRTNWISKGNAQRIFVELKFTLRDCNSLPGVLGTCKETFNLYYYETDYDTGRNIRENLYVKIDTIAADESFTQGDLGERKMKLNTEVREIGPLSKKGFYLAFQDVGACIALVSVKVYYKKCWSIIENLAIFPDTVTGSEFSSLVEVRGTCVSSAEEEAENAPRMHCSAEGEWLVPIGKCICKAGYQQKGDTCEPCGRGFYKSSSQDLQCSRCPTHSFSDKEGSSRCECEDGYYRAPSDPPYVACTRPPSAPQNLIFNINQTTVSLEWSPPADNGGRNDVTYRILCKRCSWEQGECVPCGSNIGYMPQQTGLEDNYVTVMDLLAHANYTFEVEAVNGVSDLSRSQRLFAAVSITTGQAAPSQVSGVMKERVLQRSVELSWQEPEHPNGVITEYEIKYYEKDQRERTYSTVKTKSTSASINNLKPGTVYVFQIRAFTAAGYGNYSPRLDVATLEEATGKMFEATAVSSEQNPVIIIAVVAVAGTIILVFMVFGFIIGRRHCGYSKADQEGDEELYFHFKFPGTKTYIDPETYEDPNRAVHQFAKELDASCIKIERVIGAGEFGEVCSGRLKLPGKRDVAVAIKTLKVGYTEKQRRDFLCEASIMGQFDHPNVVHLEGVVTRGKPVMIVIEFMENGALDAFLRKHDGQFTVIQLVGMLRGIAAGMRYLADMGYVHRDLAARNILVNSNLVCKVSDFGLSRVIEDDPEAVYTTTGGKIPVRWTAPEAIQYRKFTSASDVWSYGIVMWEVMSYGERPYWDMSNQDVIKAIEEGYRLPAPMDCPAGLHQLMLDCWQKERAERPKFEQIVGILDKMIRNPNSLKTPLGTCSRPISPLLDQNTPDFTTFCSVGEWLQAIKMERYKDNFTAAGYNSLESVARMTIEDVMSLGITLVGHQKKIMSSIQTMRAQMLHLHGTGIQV

Chain of Serine/threonine-protein kinase N2 (Q16513 whole entry, looked up): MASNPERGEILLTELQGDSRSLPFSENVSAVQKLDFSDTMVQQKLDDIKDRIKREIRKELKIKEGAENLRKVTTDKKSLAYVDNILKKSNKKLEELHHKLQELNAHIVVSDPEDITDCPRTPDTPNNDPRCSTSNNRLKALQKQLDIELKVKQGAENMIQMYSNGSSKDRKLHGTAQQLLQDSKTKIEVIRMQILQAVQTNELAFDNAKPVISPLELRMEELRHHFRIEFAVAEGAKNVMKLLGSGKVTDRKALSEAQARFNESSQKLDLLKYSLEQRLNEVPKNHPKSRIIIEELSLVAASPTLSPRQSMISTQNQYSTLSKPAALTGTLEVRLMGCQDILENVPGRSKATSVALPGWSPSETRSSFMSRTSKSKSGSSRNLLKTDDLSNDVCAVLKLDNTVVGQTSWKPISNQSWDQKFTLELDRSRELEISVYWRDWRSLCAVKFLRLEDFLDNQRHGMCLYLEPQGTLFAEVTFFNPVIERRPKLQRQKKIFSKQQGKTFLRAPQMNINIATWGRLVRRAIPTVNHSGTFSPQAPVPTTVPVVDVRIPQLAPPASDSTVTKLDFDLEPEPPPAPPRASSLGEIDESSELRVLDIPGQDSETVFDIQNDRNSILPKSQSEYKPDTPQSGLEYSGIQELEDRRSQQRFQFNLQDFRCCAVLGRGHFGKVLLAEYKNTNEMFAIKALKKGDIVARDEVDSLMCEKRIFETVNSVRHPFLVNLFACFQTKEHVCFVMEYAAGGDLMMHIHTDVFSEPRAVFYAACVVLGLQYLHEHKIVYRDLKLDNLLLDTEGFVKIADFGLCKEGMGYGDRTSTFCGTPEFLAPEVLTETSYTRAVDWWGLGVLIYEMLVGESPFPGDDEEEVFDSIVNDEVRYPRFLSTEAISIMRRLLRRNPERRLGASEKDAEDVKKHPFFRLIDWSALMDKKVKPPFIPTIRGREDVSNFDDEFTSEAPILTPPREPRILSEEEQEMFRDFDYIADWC
Chain of High affinity nerve growth factor receptor (P04629 33-796 limits assumed): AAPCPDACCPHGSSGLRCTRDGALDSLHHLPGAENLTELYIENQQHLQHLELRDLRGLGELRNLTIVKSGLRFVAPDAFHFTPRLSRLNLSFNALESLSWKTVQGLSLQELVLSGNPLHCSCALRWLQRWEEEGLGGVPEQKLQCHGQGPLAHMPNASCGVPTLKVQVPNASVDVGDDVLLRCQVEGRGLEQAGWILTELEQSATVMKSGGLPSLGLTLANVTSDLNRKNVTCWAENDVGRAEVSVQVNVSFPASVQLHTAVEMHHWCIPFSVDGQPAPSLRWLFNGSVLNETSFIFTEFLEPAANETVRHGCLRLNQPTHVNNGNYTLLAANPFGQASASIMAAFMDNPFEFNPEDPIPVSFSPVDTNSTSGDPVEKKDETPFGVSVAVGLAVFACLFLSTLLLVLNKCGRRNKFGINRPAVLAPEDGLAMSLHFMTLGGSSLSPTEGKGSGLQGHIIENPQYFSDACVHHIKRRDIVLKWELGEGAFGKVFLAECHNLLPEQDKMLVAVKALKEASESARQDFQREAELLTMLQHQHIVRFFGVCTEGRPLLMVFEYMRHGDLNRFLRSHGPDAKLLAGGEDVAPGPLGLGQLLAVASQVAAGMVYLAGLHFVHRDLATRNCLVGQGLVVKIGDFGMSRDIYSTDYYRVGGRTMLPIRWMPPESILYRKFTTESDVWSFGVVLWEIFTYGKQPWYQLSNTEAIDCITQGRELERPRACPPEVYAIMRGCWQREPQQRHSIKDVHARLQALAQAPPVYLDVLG
Chain of MAP kinase-interacting serine/threonine-protein kinase 1 (Homo sapiens) (Q9BUB5 whole entry, looked up): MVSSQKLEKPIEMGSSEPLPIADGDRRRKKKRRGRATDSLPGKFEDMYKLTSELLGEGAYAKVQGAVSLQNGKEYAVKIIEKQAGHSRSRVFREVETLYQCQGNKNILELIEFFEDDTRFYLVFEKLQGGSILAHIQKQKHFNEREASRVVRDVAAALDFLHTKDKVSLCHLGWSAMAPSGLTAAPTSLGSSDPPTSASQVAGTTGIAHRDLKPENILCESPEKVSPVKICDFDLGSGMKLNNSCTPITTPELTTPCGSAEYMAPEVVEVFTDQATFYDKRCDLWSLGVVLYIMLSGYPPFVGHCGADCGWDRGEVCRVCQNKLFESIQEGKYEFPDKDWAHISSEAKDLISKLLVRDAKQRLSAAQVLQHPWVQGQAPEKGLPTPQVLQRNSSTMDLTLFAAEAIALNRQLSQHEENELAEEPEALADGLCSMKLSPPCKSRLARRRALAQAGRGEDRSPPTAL
Chain of Casein kinase I isoform alpha (P48729 2-337 limits assumed): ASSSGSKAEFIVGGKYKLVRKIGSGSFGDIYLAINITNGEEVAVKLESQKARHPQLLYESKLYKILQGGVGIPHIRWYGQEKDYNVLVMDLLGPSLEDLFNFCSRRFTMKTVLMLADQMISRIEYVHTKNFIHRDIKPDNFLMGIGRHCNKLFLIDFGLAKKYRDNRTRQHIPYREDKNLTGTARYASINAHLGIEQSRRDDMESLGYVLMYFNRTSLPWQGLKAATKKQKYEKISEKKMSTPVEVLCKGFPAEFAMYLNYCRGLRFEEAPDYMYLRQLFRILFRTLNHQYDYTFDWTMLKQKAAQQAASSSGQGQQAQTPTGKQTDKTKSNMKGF
Chain of Vascular endothelial growth factor receptor 2 (P35968 whole entry): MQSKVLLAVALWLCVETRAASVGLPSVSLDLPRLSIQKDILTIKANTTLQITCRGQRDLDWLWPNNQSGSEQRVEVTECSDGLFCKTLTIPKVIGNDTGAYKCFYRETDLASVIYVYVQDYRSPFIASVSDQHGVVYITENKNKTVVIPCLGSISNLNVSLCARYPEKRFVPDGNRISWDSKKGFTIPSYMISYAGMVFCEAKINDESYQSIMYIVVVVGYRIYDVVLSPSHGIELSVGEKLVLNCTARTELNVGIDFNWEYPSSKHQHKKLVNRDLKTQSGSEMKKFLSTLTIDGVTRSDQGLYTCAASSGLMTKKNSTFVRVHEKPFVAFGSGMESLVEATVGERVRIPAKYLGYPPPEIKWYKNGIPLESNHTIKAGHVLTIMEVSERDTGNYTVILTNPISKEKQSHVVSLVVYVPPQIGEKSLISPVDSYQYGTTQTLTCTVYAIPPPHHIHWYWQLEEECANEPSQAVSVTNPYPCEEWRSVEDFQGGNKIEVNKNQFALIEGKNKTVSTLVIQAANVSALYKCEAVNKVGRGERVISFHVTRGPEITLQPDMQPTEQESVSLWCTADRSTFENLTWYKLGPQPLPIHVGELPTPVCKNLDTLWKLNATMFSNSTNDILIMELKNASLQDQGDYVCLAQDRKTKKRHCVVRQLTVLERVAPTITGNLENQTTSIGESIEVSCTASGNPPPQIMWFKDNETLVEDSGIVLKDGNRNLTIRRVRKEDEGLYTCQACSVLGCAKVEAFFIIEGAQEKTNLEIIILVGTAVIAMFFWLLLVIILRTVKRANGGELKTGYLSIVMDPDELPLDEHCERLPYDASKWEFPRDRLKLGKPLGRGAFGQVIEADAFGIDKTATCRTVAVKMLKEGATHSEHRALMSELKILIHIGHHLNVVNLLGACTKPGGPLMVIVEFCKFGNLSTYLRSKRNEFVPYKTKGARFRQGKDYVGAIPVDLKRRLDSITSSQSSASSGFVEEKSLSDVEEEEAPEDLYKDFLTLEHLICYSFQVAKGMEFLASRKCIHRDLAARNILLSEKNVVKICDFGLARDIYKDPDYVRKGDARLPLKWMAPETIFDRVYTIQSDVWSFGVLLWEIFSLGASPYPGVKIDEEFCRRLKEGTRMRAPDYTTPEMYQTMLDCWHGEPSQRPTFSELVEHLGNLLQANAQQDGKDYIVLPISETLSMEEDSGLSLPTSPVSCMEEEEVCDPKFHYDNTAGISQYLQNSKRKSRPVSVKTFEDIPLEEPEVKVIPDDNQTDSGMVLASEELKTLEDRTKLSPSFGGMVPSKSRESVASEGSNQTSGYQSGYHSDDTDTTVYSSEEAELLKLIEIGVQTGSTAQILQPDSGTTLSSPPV

In assay [1], `Cn1cc(-n2cnc3c(NCc4nc5cc(Cl)c(Cl)cc5[nH]4)nc(N4CCOCC4)nc32)cn1` registered a % of control of 3.47%.
For `Cc1cc([C@@H](C)Nc2ccccc2C(=O)O)c2nc(N3CCOCC3)cc(=O)n2c1` [AZD-6482], the % of control in assay [2] and in [3] was 100% each time.
For `CC[C@@H]1[C@H](F)C(=O)N[C@@H]1COc1nccc2cc(C(N)=O)c(OC)cc12` [ZIMLOVISERTIB], the % of inhibition in [4] is -29.5%.
In the case of `C=CC(=O)Nc1cc(-n2c(=O)ccc3cnc4ccc(-c5ccc(NS(C)(=O)=O)cc5)cc4c32)ccc1C`, the % of control came out at 100% in assay [5] (at 1 µM), 100% in assay [5] (at 10 µM), 100% in [6] (at 1 µM) and 81% in assay [6] (at 10 µM).
`CN1Cc2nccc(-c3cn(C)nc3-c3ccc(F)cc3)c2C1=O`: the % of inhibition in assay [7] was -1%.
For the compound `CCC(=O)N1CCN(c2ccc(-n3c(=O)ccc4cnc5ccc(-c6cnc7ccccc7c6)cc5c43)cc2C(F)(F)F)CC1`, the % of control in assay [8] was 64%.
Turning to `Nc1cnc(N2CCc3cc(S(=O)(=O)Nc4c(F)cc(Cl)cc4F)cc(N4CCCC4=O)c32)nc1` [TP-020n], the % of control in assay [9] came out at 100%; in [10], 85%.
